Drawing on article PMC6030096, “Synergy of Physico-chemical and Biological Experiments for Developing a Cyclooxygenase-2 Inhibitor” (Scientific Reports, 2018), this text covers IC50 and Selectivity index for twelve molecules.

As a reminder, the IC50 is the concentration that inhibits the measured activity by half.

Assay type in all cases: biochemical
The target of assay [1] is T1, 5-LOX (Soybean lipoxygenase) (Glycine max, UniProt P08170).
T1 construct: purchased Cayman Chemical Co. 760700
T1 sequence (P08170 1-839): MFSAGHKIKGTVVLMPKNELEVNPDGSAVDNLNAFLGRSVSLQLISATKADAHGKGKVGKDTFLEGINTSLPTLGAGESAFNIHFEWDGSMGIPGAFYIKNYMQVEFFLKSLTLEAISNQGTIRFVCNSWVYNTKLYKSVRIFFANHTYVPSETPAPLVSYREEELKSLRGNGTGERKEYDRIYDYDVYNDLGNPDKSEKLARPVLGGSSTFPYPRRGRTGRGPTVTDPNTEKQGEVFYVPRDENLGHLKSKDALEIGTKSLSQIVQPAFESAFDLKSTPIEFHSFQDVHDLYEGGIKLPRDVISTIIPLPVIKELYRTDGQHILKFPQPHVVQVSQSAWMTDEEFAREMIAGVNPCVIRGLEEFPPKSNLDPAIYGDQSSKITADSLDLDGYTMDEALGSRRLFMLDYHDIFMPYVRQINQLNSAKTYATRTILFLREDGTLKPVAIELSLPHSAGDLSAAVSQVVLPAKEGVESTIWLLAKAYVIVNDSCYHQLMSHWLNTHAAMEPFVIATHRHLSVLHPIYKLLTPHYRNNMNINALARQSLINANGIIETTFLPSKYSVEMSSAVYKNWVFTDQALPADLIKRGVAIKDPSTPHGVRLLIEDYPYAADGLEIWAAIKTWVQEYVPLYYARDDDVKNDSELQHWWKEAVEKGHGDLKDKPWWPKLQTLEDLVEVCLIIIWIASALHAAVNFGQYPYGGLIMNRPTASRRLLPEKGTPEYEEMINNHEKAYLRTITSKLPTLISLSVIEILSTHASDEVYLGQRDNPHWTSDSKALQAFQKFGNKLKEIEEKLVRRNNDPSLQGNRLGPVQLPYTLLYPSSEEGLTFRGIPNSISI
Put plainly: Lipoxygenase inhibitory activity assay. The procedure: 10 µL of the compound of each concentration was mixed with 90 µL 5-LOX (Soybean lipoxygenase in assay buffer) in the specified wells of the 96-well plate. Two wells containing assay buffer and AA acted as blanks whereas four wells, each carrying enzyme and AA, were positive controls. 10 µL AA was added to each test well and the plate was shaken for 5 min. Chromogen (100 µL) was added to each well and the plate was again shaken for 5 min. The absorbance of each well at 490 nm was recorded on microplate scanning spectrophotometer. As per the protocol given with the assay kit, the 5-LOX inhibitory activity for each compound at each concentration was determined using the mean of the two values (duplicate experiments) with deviation <5%.

Another assay addresses T2, COX-1 (Ovis aries, UniProt P05979).
T2 construct: purchased Cayman Chemical Co. 560131
T2 sequence (P05979 25-600): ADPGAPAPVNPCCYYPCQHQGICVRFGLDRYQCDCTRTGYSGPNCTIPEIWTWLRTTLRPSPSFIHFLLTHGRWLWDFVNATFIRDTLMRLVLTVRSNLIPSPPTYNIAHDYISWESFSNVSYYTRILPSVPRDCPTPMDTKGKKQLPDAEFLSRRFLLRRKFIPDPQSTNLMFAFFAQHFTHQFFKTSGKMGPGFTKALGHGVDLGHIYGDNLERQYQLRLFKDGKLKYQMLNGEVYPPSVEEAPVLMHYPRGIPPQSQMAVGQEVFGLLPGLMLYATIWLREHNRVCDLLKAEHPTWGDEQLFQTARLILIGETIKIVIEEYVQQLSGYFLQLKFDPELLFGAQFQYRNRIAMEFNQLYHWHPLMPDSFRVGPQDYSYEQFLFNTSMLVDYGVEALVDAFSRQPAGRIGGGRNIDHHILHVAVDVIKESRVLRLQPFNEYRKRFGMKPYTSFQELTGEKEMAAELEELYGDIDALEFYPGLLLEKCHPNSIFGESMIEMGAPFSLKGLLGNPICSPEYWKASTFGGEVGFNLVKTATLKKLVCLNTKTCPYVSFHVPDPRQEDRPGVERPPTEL
Put plainly: COX-1 enzyme immunoassay (Cayman inhibitor screening kit). The procedure:
(§1) Principally, the catalytic activity of COX-1/2 is slowed down in the presence of its inhibitor and quantitatively, it is inversely proportional to the amount of prostaglandin produced in the presence of inhibitor.
(§2) The enzyme inhibition screening assay kits for COX-1/2 and 5-LOX with item no. […] The 100% initial activity tubes for the two enzymes contained 10 µL heme and 10 µL of the enzyme in 160 µL reaction buffer. Then 10 µL inhibitor (compound of above mentioned concentrations) was added to the inhibitor tubes for the two enzymes and 10 µL of vehicle (DMSO) was added to 100% initial activity and background tubes. All the tubes were incubated for 10 min at 37 °C and the reaction was started by adding 10 µL arachidonic acid to all the reaction tubes. After incubation of the reaction vials for 2 min at 37 °C, the enzyme catalysis was stopped by adding 30 µL saturated stannous chloride solution to each test tube and solutions were kept at 0–4 °C. For EIA (enzyme immunoassay) procedure: the EIA buffers and assay specific reagents were prepared as written in the manual. In the COX dilutions, two test tubes labelled as BC1 and BC2 were taken to prepare background samples. Each tube contained 990 µL of EIA buffer and 10 µL of background COX-1 for BC1 and 10 µL of background COX-2 for BC2. The samples for 100% initial activity were diluted in three vials labelled IA1, IA2 and IA3 for each enzyme. IA1 contained 990 µL EIA buffer and 10 µL enzyme, IA2 has 950 µL buffer and 50 µL solution of IA1 (1:2000 dilution of original sample) and IA3 carried 500 µL of buffer and 500 µL of IA2 solution (1:4000 dilution of original sample). Each solution was thoroughly mixed. Solutions of IA2 and IA3 were used for the assaying. […] C2 contained 950 µL buffer and 50 µL solution of C1 (1:2000 dilution of original sample) and vial C3 was charged with 500 µL buffer and 500 µL solution from C2 (1: 4000 dilution of original sample). Only C2 and C3 were run in the assay. After all the reaction dilutions, these were then subjected to 96 wells plate. The wells were divided as: 2 blank wells, 2 NSB wells (non-specific binding), 3 B0 wells (maximum binding), one TA well (total activity), 16 wells for standards (S1–S8 in repeat), 2 BC1 and 2 BC2 wells. Compounds (inhibitors) were put in all the other wells. The sequence for the addition of reagents onto the plate was as per the protocol of the assay kit. […] For developing the plate; it was emptied and washed with wash buffer 5 times followed by the addition of 200 µL Ellman’s reagent to each well. 5 µL tracer was added to the TA well. Then the plate was covered and left for 60 mins for development in dark. After the respective time period the cover was removed and the plate was read at 420 nm. %B/Bo (i.e. % sample or maximum bound) value for standards S1-S8 and each sample was determined from the absorbance values obtained according to the calculation given in the protocol. The amount of prostaglandins formed during the enzymatic reaction was calculated from the values of %B/Bo for all the compounds at all concentrations with the help of the standard curve (plotted between %B/Bo of standards and raw data given in the protocol). Then the prostaglandin formed at each concentration of all the compounds and percentage inhibition values were calculated. The graph between percent inhibition of the enzyme and corresponding concentration of the compound provided IC50 values for the compounds.

The next assay addresses T3, COX-2 (Homo sapiens, UniProt P35354).
T3 sequence (P35354 18-604): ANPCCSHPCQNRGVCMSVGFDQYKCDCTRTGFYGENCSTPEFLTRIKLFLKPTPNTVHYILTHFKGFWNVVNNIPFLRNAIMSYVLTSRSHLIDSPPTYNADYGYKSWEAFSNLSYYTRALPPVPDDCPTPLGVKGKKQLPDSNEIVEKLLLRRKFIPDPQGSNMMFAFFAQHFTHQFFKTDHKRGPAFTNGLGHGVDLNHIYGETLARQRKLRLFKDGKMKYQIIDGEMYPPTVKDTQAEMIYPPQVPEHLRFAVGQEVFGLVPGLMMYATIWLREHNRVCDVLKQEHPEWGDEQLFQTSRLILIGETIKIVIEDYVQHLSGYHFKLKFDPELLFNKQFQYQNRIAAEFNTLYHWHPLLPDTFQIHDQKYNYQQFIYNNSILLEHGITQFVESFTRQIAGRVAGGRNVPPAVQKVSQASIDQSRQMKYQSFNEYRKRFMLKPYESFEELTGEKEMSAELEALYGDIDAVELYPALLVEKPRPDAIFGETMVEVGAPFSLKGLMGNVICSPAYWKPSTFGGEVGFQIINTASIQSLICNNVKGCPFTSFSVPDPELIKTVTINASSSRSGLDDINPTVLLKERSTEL
Put plainly: COX-2 enzyme immunoassay (Cayman inhibitor screening kit). Also on record: purchased Cayman Chemical Co. 560131. The following applies: for Selectivity index: SI = IC50 (COX-1)/ IC50 (COX-2); for IC50: enzyme immunoassay, average of three experiments. The procedure: as §1, §2

Where [2] appears, read: enzyme immunoassay, average of three experiments, read-out: IC50 COX-1.
The mark [3] stands for this setting: soybean lipoxygenase, duplicate, read-out: IC50 5-LOX.

Like-named read-outs stand apart in the source and are kept apart here.

`O=C1NC(=O)C(=Cc2cn(C[C@@H](O)Cn3c4ccccc4c(=O)c4ccccc43)c3ccccc23)C(=O)N1` [(R)-3a]: the half-inhibitory concentration (IC50) in assay [1] is 1 ± 0.1 µM.

For the molecule `CN1C(=O)C(=Cc2cn(C[C@@H](O)Cn3c4ccccc4c(=O)c4ccccc43)c3ccccc23)C(=O)N(C)C1=O` [(R)-3b], the half-maximal inhibitory concentration (IC50) at COX-1 stood at 1 ± 0.2 µM; on COX-2, 0.1 ± 0.07 µM; in assay [1], 2 ± 0.18 µM. At COX-2, this molecule showed a Selectivity index of 10.

As for `O=C1Nc2ccccc2C1=Cc1cn(C[C@@H](O)Cn2c3ccccc3c(=O)c3ccccc32)c2ccccc12` [(R)-3c], the half-inhibitory concentration (IC50) on COX-1 (setting [2]) came to 8 ± 0.38 µM; against COX-2 it was 80 ± 7 µM; in assay [1] (setting [3]) it was 0.6 ± 0.042 µM. This molecule gave a Selectivity index at COX-2 of 0.1.

For the molecule `O=C1C(=Cc2cn(C[C@@H](O)Cn3c4ccccc4c(=O)c4ccccc43)c3ccccc23)c2ccccc2N1c1c(Cl)cccc1Cl` [(R)-3d], the IC50 at COX-1 (setting [2]) is more than 10 µM; in assay [1] (setting [3]) it was 0.1 ± 0.06 µM.

On to `CC1=NN(c2cccc(Cl)c2)C(=O)C1=Cc1cn(C[C@@H](O)Cn2c3ccccc3c(=O)c3ccccc32)c2ccccc12` [(R)-3e], for which, in assay [1] (setting [3]), the IC50 was found to be 0.3 ± 0.13 µM.

Take `CN1C(=O)C(=Cc2cn(C[C@H](O)Cn3c4ccccc4c(=O)c4ccccc43)c3ccccc23)C(=O)N(C)C1=O` [(S)-3b]: the IC50 against COX-1 worked out at 0.7 ± 0.05 µM; against COX-2, 0.3 ± 0.18 µM; in assay [1], 0.09 ± 0.012 µM.

Take `O=C1C(=Cc2cn(C[C@H](O)Cn3c4ccccc4c(=O)c4ccccc43)c3ccccc23)c2ccccc2N1c1c(Cl)cccc1Cl` [(S)-3d]: the values for the IC50 (at COX-1 (setting [2]); on COX-2; in assay [1] (setting [3])) were 60 ± 4.5 µM, 6 ± 0.5 µM and 0.6 ± 0.039 µM, respectively. On COX-2, this molecule returned a Selectivity index of 10.

Consider `CC1=NN(c2cccc(Cl)c2)C(=O)C1=Cc1cn(C[C@H](O)Cn2c3ccccc3c(=O)c3ccccc32)c2ccccc12` [(S)-3e], for which the IC50 in assay [1] (setting [3]) came out at 0.7 ± 0.038 µM.

Take `O=C1NC(=O)C(=Cc2cn(CCCCn3c4ccccc4c(=O)c4ccccc43)c3ccccc23)C(=O)N1` [Compound 4b]: the IC50 on COX-1 was more than 10 µM; on COX-2, 8 ± 0.42 µM; in assay [1], 0.07 ± 0.022 µM.

In the case of `O=C1Nc2ccccc2C1=Cc1cn(CCCCn2c3ccccc3c(=O)c3ccccc32)c2ccccc12` [Compound 4d], the IC50 stood at 4 ± 0.18 µM on COX-1 (setting [2]), 3 ± 0.22 µM on COX-2 and 0.2 ± 0.09 µM in assay [1] (setting [3]). The same molecule had a Selectivity index on COX-2 of 1.33.

Consider `CC1=NN(c2cccc(Cl)c2)C(=O)C1=Cc1cn(CCCn2c3ccccc3c(=O)c3ccccc32)c2ccccc12` [Compound 4e], for which the IC50 on COX-1 (setting [2]) was more than 10 µM; against COX-2, 9 ± 0.55 µM; in assay [1] (setting [3]), 0.4 ± 0.015 µM. In addition, the Selectivity index at COX-2 is recorded as more than 1.11.

For the molecule `CC1=NN(c2cccc(Cl)c2)C(=O)C1=Cc1cn(CCCCn2c3ccccc3c(=O)c3ccccc32)c2ccccc12` [Compound 4f], the figures for the IC50 (at COX-2; in assay [1] (setting [3])) were 40 ± 3.8 µM and 0.1 ± 0.07 µM, respectively.
